Where two headings read alike, the source gives them in different places.
Assays:
GAL-4 DBS = settings: read-out: Kd for binding; cited from earlier work
[1] = mouse, in vivo
Procedure: (§2) At day 8, the final day of the study, mGM-CSF concentrations were measured in sera of all mice.

[2] = tested on: DSS-induced colitis in Balb/C mice; assay: DSS-induced colitis model (5% DSS), validation, Disease Activity Index; type: in vivo; settings: daily treatment, Mesopram/Metronidazole 50 mg/kg IP, mGM-CSF 5 μg non-pegylated, 5 or 10 μg pegylated
Procedure: Disease was induced in BalbC mice (N=10/group) by DSS (5%) applied daily in the drinking water. Mesopram, Metronidazole, or yeast expressed non-pegylated respectively pegylated mGM-CSF, was administered daily over a period of 8 days. Clinical scores (Daily Activity Index (DAI), a cumulative index of: weight loss, stool consistency, and rectal bleeding) were recorded daily.
(§1) Likewise, the DSS-induced mouse colitis model is useful for evaluating therapies for UC, IBD and CD. Disease is induced in mice by daily administration of 5% or 7% dextran sodium sulfate (DSS) in the drinking water over 8 days. Disease progression is monitored by the Daily Activity Index (DAI), a cumulative index of: weight loss, stool consistency, and rectal bleeding, which mimics the symptoms of UC, IBD and/or CD.
vi. DSS-induced colitis model. Prior to the gene delivery study the model was established and validated in Balb/C mice using non-pegylated and pegylated mGM-CSF protein. Disease was induced in Balb/C mice with 5% dextran sodium sulfate (DSS), provided in the drinking water every day over a period of 8 days. As the main endpoint, the Disease Activity Index (DAI, a cumulative index of: weight loss, stool consistency, and rectal bleeding) was recorded daily. […]

DSS-induced colitis = DSS-induced colitis model (7% DSS), proof of concept with pCMV-GMCSF plasmid DNA; type: in vivo, mice; settings: plasmid single injection day 0 + EP, drugs and protein daily
Procedure: Two concentrations of pCMV-mGMCSF were tested side by side with a control plasmid (pNull) and two mGM-CSF protein formulations, non-pegylated and pegylated in the DSS-induced colitis model (N=10/group). A single plasmid DNA injection was administered at day 0 followed by electroporation. Murine GM-CSF protein was injected s.c. daily. Disease was induced with 7% DSS in the drinking water and clinical scores (DIA) were recorded daily.
as §1
vii. […] In this study the efficacy of pGMCSF plasmid DNA was evaluated side by side with Mesopram, Metronidazole, non-pegylated or pegylated mGM-CSF. The disease was induced using 7% DSS, administered daily in the drinking water. Mesopram, Metronidazole and mGM-CSF protein were administered daily, using the same dosing regimen as described for the validation study. pGMCSF plasmid DNA was injected at day 0 followed by electroporation. […]

[3] = mGM-CSF concentration in sera at day 8 of the DSS colitis study; settings: final day of DSS study
Procedure: as §2

acute EAE in SJL mice = assay: Mouse acute EAE model, mIFN-β protein; type: in vivo; settings: IP twice daily; Mesopram 9 mg/kg, Prednisolone 2.5 mg/kg

Row | Compound | Kd (GAL-4 DBS) | GM-CSF in sera at day 8 [1] | DAI score [2] | disease scores (DAI) (DSS-induced colitis) | GM-CSF in sera at day 8 [3] | clinical scores of EAE, positive controls (acute EAE in SJL mice)
1 | GAL-4 residues 1-100: N-terminal DNA binding fragment of yeast GAL-4 protein | 3 nM | – | – | – | – | –
2 | Cc1ncc([N+](=O)[O-])n1CCO [Metronidazole, reference compound] | – | not detectable | significantly reduced | efficacious | – | –
3 | CCCOc1cc([C@]2(C)CNC(=O)O2)ccc1OC [Mesopram, reference compound] | – | – | significantly reduced | efficacious | not detectable | significantly decreased clinical scores
4 | C[C@]12C=CC(=O)C=C1CC[C@@H]1[C@@H]2[C@@H](O)C[C@@]2(C)[C@H]1CC[C@]2(O)C(=O)CO [Prednisolone] | – | – | – | – | – | significantly decreased clinical scores

From patent US20070179113A1, “GM-CSF gene therapy for Crohn's disease using an improved regulated expression system” (Schering Aktiengesellachaft, priority 2005, published 2007)
